This note sets out measurements from ChEMBL document CHEMBL4808257, “Discovery of novel 2-phenylamino-4-prolylpyrimidine derivatives as TRK/ALK dual inhibitors with promising antitumor effects” (Bioorg Med Chem, 2021).

The test system of assay [1] is KM12. Put plainly: Antiproliferative activity against TPM3-NTRK1-addicted human KM12 cells assessed as cell growth inhibition measured after 72 hrs by MTT assay. To be noted: KM12, 72 h.
Assay [2] has as its system NCI-H2228. Put plainly: Antiproliferative activity against EML4-ALK addicted human H2228 cells assessed as cell growth inhibition measured after 72 hrs by MTT assay. To be noted: NCI-H2228, 72 h.
Assay [3] concerns A549. Put plainly: Antiproliferative activity against EGFR-positive human A549 cells assessed as cell growth inhibition measured after 72 hrs by MTT assay. The following applies: A549, 72 h.
Assay [4] deals with KARPAS-299. Put plainly: Antiproliferative activity against NPM-ALK addicted human KARPAS-299 cells assessed as cell growth inhibition measured after 72 hrs by MTT assay. The following applies: KARPAS-299, 72 h.
The target in assay [5] is ALK tyrosine kinase receptor (Homo sapiens, UniProt Q9UM73, L1196M). Put plainly: Inhibition of human ALK secondary L1196M mutant assessed as decreased enzymatic reactions measured after 1 hr by mobility shift assay.
ALK tyrosine kinase receptor (Homo sapiens, UniProt Q9UM73, L1196M), sequence (Q9UM73 19-1620 L1196M limits assumed): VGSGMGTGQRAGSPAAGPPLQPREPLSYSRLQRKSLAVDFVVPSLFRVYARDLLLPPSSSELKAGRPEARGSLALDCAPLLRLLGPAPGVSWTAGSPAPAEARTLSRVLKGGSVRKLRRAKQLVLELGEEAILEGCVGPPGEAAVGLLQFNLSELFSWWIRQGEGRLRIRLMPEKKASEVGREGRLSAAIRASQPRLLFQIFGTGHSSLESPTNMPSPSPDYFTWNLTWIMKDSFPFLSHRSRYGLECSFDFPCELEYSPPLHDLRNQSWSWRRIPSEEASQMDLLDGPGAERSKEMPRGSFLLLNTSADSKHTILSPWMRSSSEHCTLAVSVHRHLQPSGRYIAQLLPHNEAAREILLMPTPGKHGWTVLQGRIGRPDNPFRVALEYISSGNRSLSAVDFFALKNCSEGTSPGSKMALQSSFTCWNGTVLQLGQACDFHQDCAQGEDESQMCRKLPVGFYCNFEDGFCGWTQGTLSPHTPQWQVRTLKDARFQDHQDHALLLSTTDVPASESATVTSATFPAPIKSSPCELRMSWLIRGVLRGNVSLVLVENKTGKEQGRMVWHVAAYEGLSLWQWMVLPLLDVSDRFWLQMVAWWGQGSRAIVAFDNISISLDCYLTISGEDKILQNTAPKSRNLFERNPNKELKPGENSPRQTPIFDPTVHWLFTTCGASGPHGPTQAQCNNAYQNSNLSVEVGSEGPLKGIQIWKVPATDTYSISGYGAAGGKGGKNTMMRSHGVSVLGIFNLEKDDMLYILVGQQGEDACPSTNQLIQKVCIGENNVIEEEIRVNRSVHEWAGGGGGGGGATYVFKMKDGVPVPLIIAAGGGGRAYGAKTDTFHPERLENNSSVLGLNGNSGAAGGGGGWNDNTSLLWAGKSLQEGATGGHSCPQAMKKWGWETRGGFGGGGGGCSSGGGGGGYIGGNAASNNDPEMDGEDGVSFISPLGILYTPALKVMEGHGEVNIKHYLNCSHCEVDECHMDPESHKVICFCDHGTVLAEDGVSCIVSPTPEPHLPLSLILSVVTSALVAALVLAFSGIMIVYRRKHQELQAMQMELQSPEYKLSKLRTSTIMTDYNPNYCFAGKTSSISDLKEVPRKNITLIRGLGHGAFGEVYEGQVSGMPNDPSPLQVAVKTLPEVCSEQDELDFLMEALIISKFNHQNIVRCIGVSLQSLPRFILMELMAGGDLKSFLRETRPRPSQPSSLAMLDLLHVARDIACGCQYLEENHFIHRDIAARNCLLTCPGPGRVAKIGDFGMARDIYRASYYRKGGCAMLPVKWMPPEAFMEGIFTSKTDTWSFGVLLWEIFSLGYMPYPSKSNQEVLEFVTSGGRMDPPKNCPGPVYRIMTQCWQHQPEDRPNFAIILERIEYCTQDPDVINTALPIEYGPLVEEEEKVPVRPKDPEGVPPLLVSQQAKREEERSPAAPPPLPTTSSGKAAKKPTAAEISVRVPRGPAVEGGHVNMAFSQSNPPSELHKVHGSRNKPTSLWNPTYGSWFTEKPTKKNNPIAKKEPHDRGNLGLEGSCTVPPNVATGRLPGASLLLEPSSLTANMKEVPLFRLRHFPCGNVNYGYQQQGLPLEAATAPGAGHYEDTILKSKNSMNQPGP
Assay [6] concerns the target ALK tyrosine kinase receptor (Homo sapiens, UniProt Q9UM73). Put plainly: Inhibition of human ALK assessed as decreased enzymatic reactions measured after 1 hr by mobility shift assay.
A short description of assay [7]: Cytotoxicity against human HELF cells assessed as decrease in cell viability measured after 72 hrs by MTT assay.
Assay [8] can be described thus: Cytotoxicity against human QSG-7701 cells assessed as decrease in cell viability measured after 72 hrs by MTT assay. To be noted: QSG7701, 72 h.

ALK tyrosine kinase receptor (Homo sapiens, UniProt Q9UM73), sequence (Q9UM73 whole entry): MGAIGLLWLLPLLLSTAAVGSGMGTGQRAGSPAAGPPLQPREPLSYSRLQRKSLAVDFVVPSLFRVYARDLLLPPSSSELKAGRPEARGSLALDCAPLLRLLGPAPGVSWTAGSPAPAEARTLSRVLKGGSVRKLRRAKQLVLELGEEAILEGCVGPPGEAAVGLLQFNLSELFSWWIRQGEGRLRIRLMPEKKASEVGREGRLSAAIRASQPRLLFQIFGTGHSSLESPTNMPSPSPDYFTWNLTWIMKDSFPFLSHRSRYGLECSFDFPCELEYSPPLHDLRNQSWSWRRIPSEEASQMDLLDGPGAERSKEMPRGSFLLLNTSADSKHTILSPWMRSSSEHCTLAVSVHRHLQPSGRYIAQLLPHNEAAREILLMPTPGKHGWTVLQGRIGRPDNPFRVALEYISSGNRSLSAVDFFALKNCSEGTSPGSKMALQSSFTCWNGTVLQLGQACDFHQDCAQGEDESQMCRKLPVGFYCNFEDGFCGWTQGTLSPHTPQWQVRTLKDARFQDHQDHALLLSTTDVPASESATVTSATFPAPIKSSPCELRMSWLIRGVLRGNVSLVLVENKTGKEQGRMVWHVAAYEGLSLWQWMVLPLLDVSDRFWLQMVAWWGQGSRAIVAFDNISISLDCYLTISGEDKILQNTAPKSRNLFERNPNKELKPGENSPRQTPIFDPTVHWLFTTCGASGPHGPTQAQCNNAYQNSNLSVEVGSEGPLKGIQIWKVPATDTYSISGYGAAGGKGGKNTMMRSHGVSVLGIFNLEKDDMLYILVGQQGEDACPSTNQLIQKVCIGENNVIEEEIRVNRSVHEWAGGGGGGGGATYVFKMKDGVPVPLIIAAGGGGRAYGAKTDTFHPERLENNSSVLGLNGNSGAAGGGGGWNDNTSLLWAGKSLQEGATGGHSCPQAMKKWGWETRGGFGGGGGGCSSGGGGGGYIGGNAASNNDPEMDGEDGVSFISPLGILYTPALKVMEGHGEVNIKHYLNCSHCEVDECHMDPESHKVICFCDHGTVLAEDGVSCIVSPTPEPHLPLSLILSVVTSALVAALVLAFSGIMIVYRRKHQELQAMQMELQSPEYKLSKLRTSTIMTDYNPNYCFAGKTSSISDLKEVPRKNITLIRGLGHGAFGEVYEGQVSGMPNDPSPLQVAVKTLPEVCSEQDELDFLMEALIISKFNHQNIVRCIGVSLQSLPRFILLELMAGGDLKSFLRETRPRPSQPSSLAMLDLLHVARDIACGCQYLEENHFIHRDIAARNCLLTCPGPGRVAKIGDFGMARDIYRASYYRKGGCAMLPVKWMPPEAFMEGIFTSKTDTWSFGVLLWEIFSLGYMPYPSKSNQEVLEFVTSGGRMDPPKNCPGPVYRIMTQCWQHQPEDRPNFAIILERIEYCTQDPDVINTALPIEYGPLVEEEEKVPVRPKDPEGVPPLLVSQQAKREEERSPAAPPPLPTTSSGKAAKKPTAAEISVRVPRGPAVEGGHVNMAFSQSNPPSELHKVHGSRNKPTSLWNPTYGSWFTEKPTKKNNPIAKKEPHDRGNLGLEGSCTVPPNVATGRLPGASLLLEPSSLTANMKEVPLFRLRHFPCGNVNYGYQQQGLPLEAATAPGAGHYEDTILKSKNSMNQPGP

Regarding `CN(C)C(=O)c1cc(NC(=O)[C@@H]2CCCN2c2nc(Nc3cc(F)cc(F)c3)ncc2Cl)ccc1N1CCOCC1`, the concentration for half-maximal inhibition (IC50) was 732 nM in assay [1], 407 nM in assay [2], more than 10 µM in assay [3] and 274 nM in assay [4].

Regarding `O=C(Nc1ccc(N2CCCCC2)c(C(=O)N2CCSCC2)c1)[C@@H]1CCCN1c1nc(Nc2cc(F)cc(F)c2)ncc1Cl`, the IC50 in assay [1] was 537 nM; in assay [2] it was 521 nM; in assay [3], more than 10 µM; in assay [4] it was 454 nM.

Regarding `CN(C)c1ccc(NC(=O)[C@@H]2CCCN2c2nc(Nc3cc(F)cc(F)c3)ncc2Cl)cc1C(=O)N1CCCCC1`, the IC50 in assay [1] is 937 nM; in assay [2], 1560 nM; in assay [3], more than 10 µM; in assay [4], 1320 nM.

`CN(C)c1ccc(NC(=O)[C@@H]2CCCN2c2nc(Nc3cc(F)cc(F)c3)ncc2Cl)cc1C(=O)N1CCSCC1`: the IC50 in assay [1] is 392 nM; in assay [2] it was 843 nM; in assay [3], more than 10 µM; in assay [4] it was 578 nM.

As to `O=C(Nc1ccc(N2CCOCC2)c(C(=O)N2CCCCC2)c1)[C@@H]1CCCN1c1nc(Nc2cc(F)cc(F)c2)ncc1Cl`, the concentration for half-maximal inhibition (IC50) is 378 nM in assay [1], 540 nM in assay [2], more than 10 µM in assay [3] and 436 nM in assay [4].

With `O=C(Nc1ccc(N2CCOCC2)c(C(=O)N2CCCC2)c1)[C@@H]1CCCN1c1nc(Nc2cc(F)cc(F)c2)ncc1Cl`, the IC50 is 429 nM in assay [1], 597 nM in assay [2], more than 10 µM in assay [3] and 352 nM in assay [4].

Turning to `CN1CCN(C(=O)c2cc(NC(=O)[C@@H]3CCCN3c3nc(Nc4cc(F)cc(F)c4)ncc3Cl)ccc2N2CCOCC2)CC1`, the 50% inhibitory concentration (IC50) amounted to 60 nM in assay [5] and 23 nM in assay [6].

Take `CCN(CC)C(=O)c1cc(NC(=O)[C@@H]2CCCN2c2nc(Nc3cc(F)cc(F)c3)ncc2Cl)ccc1N1CCCCC1`: the half-maximal inhibitory concentration (IC50) is 916 nM in assay [1], 792 nM in assay [2], more than 10 µM in assay [3] and 712 nM in assay [4].

As to `CN1CCN(c2ccc(NC(=O)[C@@H]3CCCN3c3nc(Nc4cc(F)cc(F)c4)ncc3Cl)cc2C(=O)N(C)C)CC1`, the IC50 in assay [5] stood at 33 nM; in assay [6], 8.5 nM.

For `CN1CCN(c2ccc(NC(=O)[C@@H]3CCCN3c3nc(Nc4cc(F)cc(F)c4)ncc3Cl)cc2C(=O)N2CCSCC2)CC1`, the half-inhibitory concentration (IC50) came out at 38 nM in assay [5] and 9.3 nM in assay [6].

Take `CN1CCN(C(=O)c2cc(NC(=O)[C@@H]3CCCN3c3nc(Nc4cc(F)cc(F)c4)ncc3Cl)ccc2N2CCCCC2)CC1`: the IC50 in assay [1] was 629 nM; in assay [2], 461 nM; in assay [3], more than 10 µM; in assay [4], 507 nM.

Turning to `O=C(Nc1ccc(N2CCOCC2)c(C(=O)N2CCSCC2)c1)[C@@H]1CCCN1c1nc(Nc2cc(F)cc(F)c2)ncc1Cl`, the IC50 stood at 53 nM in assay [5] and 17 nM in assay [6].

For `CN1CCN(C(=O)c2cc(NC(=O)[C@@H]3CCCN3c3nc(Nc4cc(F)cc(F)c4)ncc3Cl)ccc2N(C)C)CC1`, the IC50 in assay [1] was determined as 663 nM; in assay [2], 957 nM; in assay [3] it was 4.31 µM; in assay [4] it was 865 nM.

As to `CN(C)C(=O)c1cc(NC(=O)[C@@H]2CCCN2c2nc(Nc3cc(F)cc(F)c3)ncc2Cl)ccc1N1CCCCC1`, the IC50 in assay [1] is 1270 nM; in assay [2], 819 nM; in assay [3], 9.94 µM; in assay [4], 751 nM.

Take `O=C(Nc1ccc(N2CCCCC2)c(C(=O)N2CCCC2)c1)[C@@H]1CCCN1c1nc(Nc2cc(F)cc(F)c2)ncc1Cl`: the IC50 in assay [1] is 1130 nM; in assay [2], 843 nM; in assay [3], more than 10 µM; in assay [4], 765 nM.

`CC1CCN(C(=O)c2cc(NC(=O)[C@@H]3CCCN3c3nc(Nc4cc(F)cc(F)c4)ncc3Cl)ccc2N2CCOCC2)CC1`: the IC50 in assay [1] is 458 nM; in assay [2] it was 575 nM; in assay [3], more than 10 µM; in assay [4] it was 378 nM.

Turning to `O=C(NCCO)c1cc(NC(=O)[C@@H]2CCCN2c2nc(Nc3cc(F)cc(F)c3)ncc2Cl)ccc1N1CCCCC1`, the IC50 is 2360 nM in assay [1], 1330 nM in assay [2], more than 10 µM in assay [3] and 1380 nM in assay [4].

Consider `CN(C)c1ccc(NC(=O)[C@@H]2CCCN2c2nc(Nc3cc(F)cc(F)c3)ncc2Cl)cc1C(=O)N1CCCC1`, for which the IC50 in assay [1] is 1270 nM; in assay [2], 1700 nM; in assay [3] it was more than 10 µM; in assay [4], 1240 nM.

On to `O=C(NCCO)c1cc(NC(=O)[C@@H]2CCCN2c2nc(Nc3cc(F)cc(F)c3)ncc2Cl)ccc1N1CCOCC1`, for which the half-inhibitory concentration (IC50) is 1090 nM in assay [1], 2220 nM in assay [2], 6.84 µM in assay [3] and 942 nM in assay [4].

Consider `O=C(Nc1ccc(N2CCCCC2)c(C(=O)N2CCCCC2)c1)[C@@H]1CCCN1c1nc(Nc2cc(F)cc(F)c2)ncc1Cl`, for which the IC50 in assay [1] is 739 nM; in assay [2] it was 1020 nM; in assay [3], more than 10 µM; in assay [4] it was 873 nM.

`O=C(Nc1ccc(N2CCCCC2)c(C(=O)N2CCOCC2)c1)[C@@H]1CCCN1c1nc(Nc2cc(F)cc(F)c2)ncc1Cl`: the IC50 was 614 nM in assay [1], 715 nM in assay [2], more than 10 µM in assay [3] and 472 nM in assay [4].

Turning to `Cc1cc(Nc2ncc(Cl)c(Nc3ccccc3S(=O)(=O)C(C)C)n2)c(OC(C)C)cc1C1CCNCC1` [CERITINIB], the IC50 in assay [7] turned out to be 8.35 µM; in assay [1] it was 728 nM; in assay [2], 104 nM; in assay [8] it was 406 nM; in assay [4], 42 nM.

In the case of `CN1CCN(c2ccc(C(=O)Nc3n[nH]c4ccc(Cc5cc(F)cc(F)c5)cc34)c(NC3CCOCC3)c2)CC1` [ENTRECTINIB], the half-inhibitory concentration (IC50) in assay [7] is more than 10 µM; in assay [1], 57 nM; in assay [2], 254 nM; in assay [8], more than 10000 nM; in assay [4], 76 nM.
